From patent publication US20090288225A1, “Novel Aromatic Acyltransferase Genes” (Aomori Prefecture, priority 2006, published 2009)

What was measured:
[1] = test system: 35-70% ammonium sulfate precipitate fraction of the protein extracted from butterfly pea petals; test: Examination of substrates: acyltransferase activity with butterfly pea petal protein fraction; assay type: biochemical, butterfly pea (Clitoria ternatea); details: for acyltransferase activity as acyl donor: acyl receptor preternatin C5, specific activity order: sinapoyl, feruloyl, p-coumaroyl, caffeoyl glucose (highest first); for acyltransferase activity as acyl acceptor: acyl donor 1-O-p-coumaroyl-β-D-glucose
Experimental: (§1) A reaction solution (20 μl) containing 100 mM phosphate buffer (pH 6.5), 0.4 mM anthocyanin (4 μl), 0.5 mM 1-O-acyl-β-D-glucose (4 μl) and an enzyme solution (8 μl) was reacted at 30° C. The reaction was terminated by adding 4 μl of 1M aqueous hydrochloric acid solution. After addition of 24 μl of 5% acetonitrile containing 0.05 M TFA, the reaction solution was filtered with Millex-LH filter (Millipore) and then analyzed by HPLC by feeding a 10 μl aliquot.
(§2) HPLC analysis of anthocyanin acyltransferase reaction products were performed with Develosil ODS-UG-5 column (3.0 i.d.×250 mm; Nomura Chemical) at a column temperature of 35° C. Against an initial solvent that was 0.05 M trifluoroacetate (TFA)-containing 5% acetonitrile (MeCN) aqueous solution, 0.05 M TFA-containing 40% MeCN was added with a linear concentration gradient from 14 to 86% (20 min) and the reaction products were eluted at a flow rate of 0.5 ml/min. The reaction products were detected with PDA and their molecular weights were confirmed by LC-MS/MS.
In order to detect an enzyme activity of transferring an aromatic acyl group to the sugar residue of flavonoids using 1-O-acyl-β-D-glucose as an acyl donor, various types of 1-O-acyl-β-D-glucose and anthocyanin were examined. Briefly, enzyme activities were measured using 35-70% ammonium sulfate precipitate fraction of the protein extracted from butterfly pea petals as an enzyme solution, preternatin C5 as an acyl receptor, and various 1-O-acyl-β-D-glucoses as an acyl donor. […] Specific activity was higher in the following order: 1-O-sinapoyl-β-D-glucose, 1-O-feruloyl-β-D-glucose, 1-O-p-coumaroyl-β-D-glucose and 1-O-caffeoyl-β-D-glucose. Further, enzyme activities were measured using 1-O-p-coumaroyl-β-D-glucose as an acyl donor and various types of anthocyanin as an acyl acceptor.

[2] = UDP-glucose:hydroxycinnamate 1-O-glucosyltransferase activity of recombinant proteins from E. coli; assay type: biochemical; details: against all four types of hydroxycinnamic acid used
Experimental: The transformed E. coli was shaking-cultured overnight in 3 ml of LB medium containing 50 μg/ml kanamycin and 34 μg/ml chloramphenicol. This culture broth (500 μl) was inoculated into LB medium (50 ml) and shaking-cultured until absorbance at 600 nm reached 0.4. Then, isopropyl-β-D-thiogalactoside (IPTG) was added to give a final concentration of 0.4 mM. The cells were shaking-cultured at 25° C. for 16 hr and then harvested by refrigerated centrifugation (8000 rpm, 4° C., 20 min). CtGT11-4 protein was partially purified from the cells using Ni-NTA mini-column according to the method recommended by the manufacturer. […]
For measuring enzyme activity, a 30 μl reaction solution containing 100 mM potassium phosphate buffer (pH 7.4), 30 pmole of UDP-glucose, 30 pmole of hydroxycinnamic acid and 15 μl of recombinant protein solution was reacted at 30° C. […] The enzyme reaction products were analyzed by reversed-phase high performance liquid chromatography (Shiseido NanoSpace system) using Develosil C30-UG-5 (1.5 i.d.×250 mm). […] The eluted materials were detected with a PDA detector, and the resultant data were analyzed to thereby quantitatively determine 1-O-acyl-β-D-glucose. […]
LeGT13-20 and LeGT13-30 genes were expressed using pET30Ek/LIC System (Novagen). […] Resultant several clones were analyzed to confirm the nucleotide sequences thereof, and then transformed into E. coli BL21-CodonPlus(DE3)-RP. […]

[3] = Enzyme activity of recombinant CtSCPL1 protein expressed in Baculovirus-Sf9 insect cells; assay type: biochemical, butterfly pea (Clitoria ternatea)
Experimental: as §1, §2
Sf9 cells monolayer-cultured in complete Grace medium or Sf900II-SFM serum free medium (Gibco) in 6-well plates (3×10^6 cells) were infected with the recombinant virus at a multiplicity of infection (MOI) of 5-10. […] Enzyme reaction was performed using the thus concentrated protein solution, and the reaction product was analyzed by HPLC and LC-MS. […]

acyltransferase activity as acyl donor [1]	acyltransferase activity as acyl acceptor [1]	Molecule	further results
acyltransferase activity was detected		O=C(/C=C/c1ccc(O)c(O)c1)O[C@@H]1O[C@H](CO)[C@@H](O)[C@H](O)[C@H]1O [1-O-caffeoyl-β-D-glucose]	
acyltransferase activity was detected		COc1cc(/C=C/C(=O)O[C@@H]2O[C@H](CO)[C@@H](O)[C@H](O)[C@H]2O)ccc1O [1-O-feruloyl-β-D-glucose]	
acyltransferase activity was detected		O=C(/C=C/c1ccc(O)cc1)O[C@@H]1O[C@H](CO)[C@@H](O)[C@H](O)[C@H]1O [1-O-p-coumaroyl-β-D-glucose]	
acyltransferase activity was detected		COc1cc(/C=C/C(=O)O[C@@H]2O[C@H](CO)[C@@H](O)[C@H](O)[C@H]2O)cc(OC)c1O [1-O-sinapoyl-β-D-glucose]	
	acyltransferase activity was detected	O=C(O)CC(=O)OCC1OC(Oc2cc3c(O)cc(O)cc3[o+]c2-c2cc(O)c(O)c(OC3OC(CO)C(O)C(O)C3O)c2)C(O)C(O)C1O (stereo not shown) [delphinidin 3-(6-malonyl)glucoside-3′-glucoside]	
	acyltransferase activity was detected	OC[C@H]1O[C@@H](Oc2cc3c(O)cc(O)cc3[o+]c2-c2cc(O[C@@H]3O[C@H](CO)[C@@H](O)[C@H](O)[C@H]3O)c(O)c(O[C@@H]3O[C@H](CO)[C@@H](O)[C@H](O)[C@H]3O)c2)[C@H](O)[C@@H](O)[C@@H]1O [preternatin C5, delphinidin 3,3′,5′-triglucoside]	
		LeGT13-20: lobelia 1-O-acyl-β-D-glucose synthase, 486 amino acid residues, SEQ ID NO: 16 (protein, Lobelia erinus cv.Riviera Midnight Blue; Amino acid sequence of UDP-glucose hydroxycinnamic acid 1-O-glucosyltransferase) MGSLQGTTTVENLTHVFLVSFPGQGHVNPLLRLGKILAFKGLLVTFSAPEMVGEIIKGANKYISDDELTPIGDGMIRFEFFSDGLGNTKEDNSLRGNMDLYMPQLATFAKKSLSEILIKHEKHGRPVACLINNPFIPWISELAEEFNIPSAVLWVQSCASFSAYYHYHHGLVPFPTENEPERDVQLPNMPLLKYDEIPGFLLPSSPYGFLRRAILGQFKLLSKPICILVESFQELENDCINYLSTLCPIKPIGPLFSNPSVRNGSSIRGDFMKVEDCIDWLNTRADSSVVYVSFGSIVYVKQEQITEIARGLADSGLSFLWAFKQPGIDMGLTPPSLPDGFLEEVKGRGKVVEWCSQEAVLSHPAVSCFMSHCGWNSTMEALSSGVPVAAFPIWGDQVTDAKFLVDEFKVGIRMCRGEADINKKVVTREEIARCLLAATSGPKAEELKRNALKWKKAAADSVGAGGSSDRNLEEFVGSIRKDVVGH	glucosyltransferase activity [2]: glucosyltransferase activity was confirmed
		CtSCPL1: butterfly pea SCPL acyltransferase, 487 amino acid residues, SEQ ID NO: 2 (protein, Clitoria ternatea cv. Double Blue; Amino acid sequence of 1-O-acyl-Beta-D-glucose anthocyanin-O-acyltansferase) MAAFSSTHSACGILLLPLVVSSLICFQLASCGTIVEFLPGFDGPLPFVLETGYVGVGEGEDVQVFYYFVESENNPNEDPLMLWLTGGPGCSAFSGLALEIGPLIFKREEYNGGLPNLILRPHSWTKVSSIIFVDLPVSTGFTYARTDAAAQRSDWTLVHHAHEFLRKWLIDHPKFLQNELYIGGDSYSGIPIPVIVQEISQENEKGIQPWINLQGYILGNAITTRREKGYSIPFAHGMALISDELYESLRKNCKGEYLNVDPENVLCSRDIDSYSKATSRISFAHILERTCNSGDIKTSLRRSTIQRHHTKKFLNTNLKLPPLTCRTYANFQCGLWANDDNVRSALHIHKGSIGEWHRCSIRLPFTSDIPNSFEYHVNLSRKGYYRSLIYSGDHDMMVPFLGTQAWIRSLNYSIVDDWRPWNTNGQVAGYTRTYSNRMTYATIKGGGHTAPEFKPEECFAMYSRWISKRPLYENNTMSSYTNLASIL	3′AT activity ([3]; substrates preternatin C5 or delphinidin 3-(6-malonyl)glucoside-3′-glucoside and 1-O-feruloyl-β-D-glucose): 3′AT activity was confirmed; 3′AT activity ([3]; substrates ternatin C5 and 1-O-p-coumaroyl-β-D-glucose): 3′AT activity was also recognized

Molecule	acyltransferase activity as acyl donor [1]	acyltransferase activity as acyl acceptor [1]	further results
O=C(O)CC(=O)OC[C@H]1O[C@@H](Oc2cc3c(O)cc(O)cc3[o+]c2-c2cc(O[C@@H]3O[C@H](CO)[C@@H](O)[C@H](O)[C@H]3O)c(O)c(O[C@@H]3O[C@H](CO)[C@@H](O)[C@H](O)[C@H]3O)c2)[C@H](O)[C@@H](O)[C@@H]1O [ternatin C5, Delphinidin 3-(6-malonyl)glucoside 3′,5′-diglucoside]		acyltransferase activity was detected	
